Reference: US8987239B2, “19-nor-steroid derivatives with a 15α,16α-methylene group and a saturated 17,17-spirolactone ring, use thereof, and medicaments containing said derivatives” (Bayer Intellectual Property GmbH, priority 2007, dated 2015)
Read-outs that look alike come from different tables or passages of the source.

Tests used:
[1] = molecular target: T1, progesterone receptor (Homo sapiens (Human), UniProt P06401); test: Progestational action by transactivation test (CHO K1 reporter cells, luciferase); assay type: cell-based; settings: for Emax: read-out: In vitro Transactivation Progesterone receptor Agonisten Efficacy
Procedure: 4. Determination of Progestational Action by Means of Transactivation Tests:
The test compounds were added eight hours later, and the cells were incubated with the compounds for 16 hours. The tests were carried out in triplicate. At the end of incubation the medium containing the effector was removed and replaced with lysis buffer. After luciferase assay substrate (Promega, #E1501) had been added, the 96-well plates were then put in a microplate luminometer (Pherastar, BMG labtech), and the luminescence was measured. The IC50 values were evaluated using software for calculating dose-effect relations.
Target sequence in this assay (P06401 679-913, species assumed): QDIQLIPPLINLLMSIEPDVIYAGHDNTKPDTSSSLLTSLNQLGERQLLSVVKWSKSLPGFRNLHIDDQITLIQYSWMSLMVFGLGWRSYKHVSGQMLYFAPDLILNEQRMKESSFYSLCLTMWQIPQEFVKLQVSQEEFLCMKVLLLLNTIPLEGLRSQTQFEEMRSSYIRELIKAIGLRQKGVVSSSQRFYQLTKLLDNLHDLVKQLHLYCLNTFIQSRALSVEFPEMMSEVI

[2] = molecular target: T1, progesterone receptor; test: Progesterone receptor binding test (displacement of 3H-progesterone); settings: for Receptor binding Progesterone receptor Competition factor: CF relative to progesterone (=1), CF <1 means higher affinity; for CF PR/CF MR: ratio of competition factors, progesterone receptor to mineralocorticoid receptor; for IC50: read-out: Receptor binding Progesterone receptor IC50, cytosol from PR-expressing insect cells (Hi5), 3H-progesterone
Target sequence in this assay (P06401 whole entry, species assumed): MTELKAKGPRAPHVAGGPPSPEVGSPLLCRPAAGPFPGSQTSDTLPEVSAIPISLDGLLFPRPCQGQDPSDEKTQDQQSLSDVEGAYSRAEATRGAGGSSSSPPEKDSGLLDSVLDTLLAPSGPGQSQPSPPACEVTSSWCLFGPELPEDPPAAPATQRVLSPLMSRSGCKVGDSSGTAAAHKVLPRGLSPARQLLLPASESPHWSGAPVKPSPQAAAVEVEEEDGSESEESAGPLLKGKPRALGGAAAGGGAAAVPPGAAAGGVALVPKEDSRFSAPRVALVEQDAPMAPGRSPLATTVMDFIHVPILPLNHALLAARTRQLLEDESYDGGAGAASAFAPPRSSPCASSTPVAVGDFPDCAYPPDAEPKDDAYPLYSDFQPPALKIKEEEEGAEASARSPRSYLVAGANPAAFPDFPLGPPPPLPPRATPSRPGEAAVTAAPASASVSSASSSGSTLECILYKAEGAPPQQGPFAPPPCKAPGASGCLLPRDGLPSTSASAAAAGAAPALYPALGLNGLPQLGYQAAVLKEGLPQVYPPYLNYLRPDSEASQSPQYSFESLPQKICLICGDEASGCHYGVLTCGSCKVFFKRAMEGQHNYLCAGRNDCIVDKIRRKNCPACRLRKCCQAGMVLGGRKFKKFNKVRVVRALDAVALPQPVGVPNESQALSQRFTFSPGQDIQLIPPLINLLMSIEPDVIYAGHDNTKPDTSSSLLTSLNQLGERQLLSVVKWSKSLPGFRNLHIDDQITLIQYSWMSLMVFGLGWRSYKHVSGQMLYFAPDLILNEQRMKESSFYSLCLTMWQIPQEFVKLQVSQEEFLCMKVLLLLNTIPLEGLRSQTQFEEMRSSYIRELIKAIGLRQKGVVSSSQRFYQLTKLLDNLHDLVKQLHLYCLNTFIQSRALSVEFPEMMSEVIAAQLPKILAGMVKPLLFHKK
Procedure: Progesterone Receptor Binding Test:
Using cytosol from progesterone receptor-expressing insect cells (Hi5), competitive binding to the progesterone receptor was determined from the ability to displace ^3H-progesterone as reference substance from the receptor.

[3] = molecular target: mineralocorticoid receptor (Homo sapiens (Human), UniProt P08235); test: Mineralocorticoid receptor binding test (displacement of 3H-aldosterone); settings: cytosol from MR-expressing insect cells (Hi5), reference 3H-aldosterone
Description: 2. Mineralocorticoid Receptor Binding Test:

[4] = molecular target: androgen receptor (Homo sapiens (Human), UniProt P10275); test: Androgen receptor binding test (displacement of 3H-testosterone); settings: cytosol from AR-expressing insect cells (Hi5); for Receptor binding Androgen receptor Competition factor: reference 3H-testosterone; for IC50: read-out: Receptor binding Androgen receptor IC50, 3H-testosterone
Procedure: Androgen Receptor Binding Test:
The test was carried out as in 1, with the following modifications: cytosol from androgen receptor-expressing insect cells (Hi5) was used, and the reference substance was ^3H-testosterone.

[5] = CHO K1 PR-LBD/Gal4 luciferase reporter cells, 16 hours incubation, read-out: In vitro Transactivation Progesterone receptor Agonisten EC50
[6] = CHO K1 PR-LBD/Gal4 luciferase reporter cells, 16 hours incubation

Sequence of androgen receptor (P10275 whole entry, species assumed, the tested form may be a part): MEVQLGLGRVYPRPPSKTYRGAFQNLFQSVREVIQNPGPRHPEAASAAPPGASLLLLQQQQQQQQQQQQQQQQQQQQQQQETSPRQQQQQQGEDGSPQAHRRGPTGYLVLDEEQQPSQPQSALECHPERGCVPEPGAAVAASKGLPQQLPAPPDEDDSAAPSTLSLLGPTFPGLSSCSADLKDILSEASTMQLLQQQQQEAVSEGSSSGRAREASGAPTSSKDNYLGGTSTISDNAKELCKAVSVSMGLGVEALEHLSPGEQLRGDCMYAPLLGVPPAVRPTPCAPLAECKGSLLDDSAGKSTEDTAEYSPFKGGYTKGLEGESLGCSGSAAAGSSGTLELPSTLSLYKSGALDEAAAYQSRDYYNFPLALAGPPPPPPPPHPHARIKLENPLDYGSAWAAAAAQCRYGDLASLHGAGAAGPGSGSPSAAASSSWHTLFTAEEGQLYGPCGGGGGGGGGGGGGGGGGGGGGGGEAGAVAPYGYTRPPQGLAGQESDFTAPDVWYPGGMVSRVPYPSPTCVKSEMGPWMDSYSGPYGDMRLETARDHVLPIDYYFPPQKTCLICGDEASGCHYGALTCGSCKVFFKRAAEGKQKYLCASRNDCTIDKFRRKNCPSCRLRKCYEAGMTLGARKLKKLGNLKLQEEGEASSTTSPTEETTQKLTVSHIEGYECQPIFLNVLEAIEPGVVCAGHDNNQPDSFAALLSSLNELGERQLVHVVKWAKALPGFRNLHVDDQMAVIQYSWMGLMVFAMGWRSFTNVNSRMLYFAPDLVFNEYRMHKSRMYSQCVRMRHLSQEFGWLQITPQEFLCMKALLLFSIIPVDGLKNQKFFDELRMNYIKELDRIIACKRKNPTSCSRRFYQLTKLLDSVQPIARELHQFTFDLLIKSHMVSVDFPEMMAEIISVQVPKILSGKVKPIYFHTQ
Sequence of mineralocorticoid receptor (P08235 whole entry, species assumed): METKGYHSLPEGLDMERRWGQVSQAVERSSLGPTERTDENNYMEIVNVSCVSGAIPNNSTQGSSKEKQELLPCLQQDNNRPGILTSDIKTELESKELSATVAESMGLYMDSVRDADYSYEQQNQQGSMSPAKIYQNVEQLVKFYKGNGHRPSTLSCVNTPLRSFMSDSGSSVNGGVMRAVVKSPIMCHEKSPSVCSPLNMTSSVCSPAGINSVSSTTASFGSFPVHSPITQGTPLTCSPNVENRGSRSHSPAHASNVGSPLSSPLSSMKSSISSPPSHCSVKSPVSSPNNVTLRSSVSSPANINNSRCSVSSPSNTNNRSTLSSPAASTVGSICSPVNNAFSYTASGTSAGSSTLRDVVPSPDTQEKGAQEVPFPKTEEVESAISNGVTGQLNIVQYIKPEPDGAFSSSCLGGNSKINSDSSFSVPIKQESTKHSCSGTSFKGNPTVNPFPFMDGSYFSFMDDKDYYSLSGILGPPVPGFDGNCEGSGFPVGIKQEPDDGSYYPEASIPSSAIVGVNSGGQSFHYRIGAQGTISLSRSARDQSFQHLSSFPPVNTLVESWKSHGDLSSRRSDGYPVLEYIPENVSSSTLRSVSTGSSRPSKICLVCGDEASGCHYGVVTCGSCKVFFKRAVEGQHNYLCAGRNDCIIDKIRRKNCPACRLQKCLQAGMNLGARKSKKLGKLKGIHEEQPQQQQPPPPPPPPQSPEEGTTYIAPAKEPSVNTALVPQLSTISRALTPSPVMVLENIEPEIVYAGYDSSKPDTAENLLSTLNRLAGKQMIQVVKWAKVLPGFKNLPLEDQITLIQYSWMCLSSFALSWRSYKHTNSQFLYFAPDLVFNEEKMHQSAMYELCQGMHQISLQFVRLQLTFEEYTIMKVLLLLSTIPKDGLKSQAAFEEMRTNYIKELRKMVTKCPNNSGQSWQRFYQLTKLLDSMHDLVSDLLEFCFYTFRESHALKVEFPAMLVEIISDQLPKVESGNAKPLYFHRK

SMILES | EC50 [1, 5] | Emax ([1]; CHO-K1, 16 h) | Receptor binding Progesterone receptor Competition factor [2] | Emax [1, 6] | Receptor binding Mineralocorticoid receptor Competition factor [3] | Receptor binding Androgen receptor Competition factor [4] | IC50 [4] | CF PR/CF MR [2] | IC50 [2] | EC50 [1]
C[C@]12CCC3C4CCC(=O)C=C4[C@@H]4C[C@@H]4C3C1C1CC1[C@@]21CCC(=O)O1 (stereo in doubt) [compound 9] | 1 nM | 77.4% |  |  |  |  |  |  |  | 
C[C@]12CCC(=O)C=C1[C@@H]1C[C@@H]1[C@H]1[C@@H]3[C@@H]4C[C@@H]4[C@@]4(CCC(=O)O4)[C@@]3(C)CC[C@@H]12 [A, 6β,7β-15β,16β-dimethylene-3-oxo-17-pregn-4-ene-21,17β-carbolactone, reference compound] |  |  | 2.7 | 72.2% | 0.5 |  |  |  |  | 
C[C@]12CCC3C4CCC(=O)C=C4CCC3C1C1CC1[C@@]21CCC(=O)O1 (stereo partly drawn) [Example 1, 17β-Hydroxy-15α,16α-methylene-19-nor-17α-pregna-4-en-3-one-21-carboxylic acid γ-lactone] |  | 55.9% |  |  | 1.8 | 110.0 | 6 nM |  |  | 
CC1CC2=CC(=O)CCC2C2CC[C@@]3(C)C(C4CC4[C@@]34CCC(=O)O4)C12 (stereo partly drawn) [Example 3, 17β-Hydroxy-7α-methyl-15α,16α-methylene-19-nor-17α-pregna-4-en-3-one-21-carboxylicacid γ-lactone] |  | 87% |  |  | 1.3 | 2.8 | 61 nM |  |  | 
CCC1CC2=CC(=O)CCC2C2CC[C@@]3(C)C(C4CC4[C@@]34CCC(=O)O4)C12 (stereo partly drawn) [Example 4, 17β-Hydroxy-7α-ethyl-15α,16α-methylene-19-nor-17α-pregna-4-en-3-one-21-carboxylic acid γ-lactone] |  | 56.7% | 1.74 |  | 1.2 | 5.6 | 74 nM | 1.45 | 33 nM | 0.7 nM
C=CC1CC2=CC(=O)CCC2C2CC[C@@]3(C)C(C4CC4[C@@]34CCC(=O)O4)C12 (stereo partly drawn) [Example 5, 17β-Hydroxy-7α-vinyl-15α,16α-methylene-19-nor-17α-pregna-4-en-3-one-21-carboxylic acid γ-lactone] |  | 66.1% | 1.16 |  | 1.4 | 3.0 | 55 nM | 0.83 | 15 nM | 3.4 nM
C[C@]12CCC3C4CCC(=O)C=C4CC(C4CC4)C3C1C1CC1[C@@]21CCC(=O)O1 (stereo partly drawn) [Example 6, 17β-Hydroxy-7α-cyclopropyl-15α,16α-methylene-19-nor-17α-pregna-4-en-3-one-21-carboxylic acid γ-lactone] |  | 48.6% | 2.65 |  | 1.6 | 6.3 | 78 nM | 1.66 | 51 nM | 1 nM
C[C@]12CCC3C4CCC(=O)C=C4[C@H](CO)CC3C1C1CC1[C@@]21CCC(=O)O1 (stereo partly drawn) [Example 7, 17β-Hydroxy-6β-hydroxymethyl-15α,16α-methylene-19-nor-17α-pregna-4-en-3-one-21-carboxylic acid γ-lactone] | 910 nM |  | 49.90 | 22.8% | 2.1 | 1000.0 | 10000 nM | 23.76 | 1100 nM | 
C[C@]12CCC3C4CCC(=O)C=C4C4(CC4)CC3C1C1CC1[C@@]21CCC(=O)O1 (stereo partly drawn) [Example 8, 6,6-(1,2-Ethanediyl)-17β-hydroxy-15α,16α-methylene-19-nor-17α-pregna-4-en-3-one-21-carboxylic acid γ-lactone] |  | 69.7% | 0.71 |  | 0.9 | 1.4 | 26 nM | 0.79 | 8.9 nM | 0.1 nM
C[C@]12CCC3C4CCC(=O)C=C4C4CC4C3C1C1CC1[C@@]21CCC(=O)O1 (stereo partly drawn) [Example 9 (B), 17β-hydroxy-6α,7α-15α,16α-bismethylene-19-nor-17α-pregna-4-en-3-one-21-carboxylic acid γ-lactone] |  |  |  | 107% |  |  |  |  |  | 
